According to US4537886A, “β-lactam antibacterial agents and compositions containing them” (Beecham Group p.l.c., priority 1982, dated 1985):
In brackets after ≈: the same amount, converted by molar mass. Structures can show the parent of a compound that is named as a salt.

System: E. coli NCTC 10418
Test: MIC against E. coli NCTC 10418
Type: cell-based
Details: Escherichia coli, NCTC 10418 / NCTC 1048; E. coli NCTC 1048 as printed in Example 7; read-out: MIC against E. coli NCTC 1048

Row | MIC [µg/mL] | Compound
1 | 50 | CCn1c(C)c(C(=O)N[C@@H](C(=O)N[C@@H]2C(=O)N3[C@@H]2SC(C)(C)[C@@H]3C(=O)O)c2ccccc2)c(=O)n1-c1ccc(N)cc1 [Example 7, 6β-[D2,-(2-Ethyl-3-methyl-1-(4-aminophenyl)-3-pyrazolin-5-one-4-carbonylamino)-2-phenyl]acetamido penicillanic acid (sodium salt)]

Same assay, conditions: Escherichia coli, NCTC10418; E. coli NCTC 10418; unit as printed in Example 1; read-out: MIC against E. coli NCTC 10418

Row | MIC [µg/mL] | Compound
2 | 5 | Cc1c(C(=O)N[C@@H](C(=O)N[C@@H]2C(=O)N3[C@@H]2SC(C)(C)[C@@H]3C(=O)O)c2ccccc2)c(=O)n(-c2ccccc2)n1C [Example 1, 6β-[D,2-(2,3-dimethyl-1-phenyl-3-pyrazolin-5-one-4-carbonylamino)-2-phenyl]acetamido penicillanic acid, sodium salt]

Same assay, conditions: Escherichia coli, NCTC10418; read-out: MIC against E. coli NCTC 10418

Row | MIC [µg/mL] | Compound
3 | 12.5 | Cc1c(C(=O)N[C@@H](C(=O)N[C@@H]2C(=O)N3[C@@H]2SC(C)(C)[C@@H]3C(=O)O)c2ccc(O)cc2)c(=O)n(-c2ccccc2)n1C [Example 2, 6β-[D,2-(2,3-dimethyl-1-phenyl-3-pyrazolin-5-one-4-carbonylamino)-2-(4-hydroxyphenyl)]acetamido penicillanic acid, sodium salt]
4 | 2.5 | CC1(C)S[C@@H]2[C@H](NC(=O)[C@H](NC(=O)c3cn(-c4ccccc4)[nH]c3=O)c3ccccc3)C(=O)N2[C@H]1C(=O)O [Example 3, 6β-[D,2-(2-phenyl-3-pyrazolin-5-one-4-carbonylamino)-2-phenyl]acetamido penicillanic acid, sodium salt]
5 | 2 | CC1(C)S[C@@H]2[C@H](NC(=O)[C@H](NC(=O)c3cnn(-c4ccccc4)c3O)c3ccccc3)C(=O)N2[C@H]1C(=O)O [Example 4, 6β-[D,2-(2H,3-Hydroxy-2-phenylpyrazole-4-carbonylamino)-2-phenyl]acetamido penicillanic acid (sodium salt)]
6 | 12.5 | COc1c(C(=O)N[C@@H](C(=O)N[C@@H]2C(=O)N3[C@@H]2SC(C)(C)[C@@H]3C(=O)O)c2ccccc2)cnn1-c1ccccc1 [Example 5, 6β-[D,2-(2H,3-Methoxy-2-phenyl-pyrazole-4-carbonylamino)-2-phenyl]acetamido penicillanic acid, sodium salt]
7 | 25 (≈ 40.2 µM) | CCn1c(C)c(C(=O)N[C@@H](C(=O)N[C@@H]2C(=O)N3[C@@H]2SC(C)(C)[C@@H]3C(=O)O)c2ccccc2)c(=O)n1-c1ccc([N+](=O)[O-])cc1 [Example 6, 6β-[D,2-(2-Ethyl-3-methyl-1-(4-nitrophenyl)-3-pyrazolin-5-one-4-carbonylamino)-2-phenyl]acetamido penicillanic acid]
8 | 10 | Cn1cc(C(=O)N[C@@H](C(=O)N[C@@H]2C(=O)N3[C@@H]2SC(C)(C)[C@@H]3C(=O)O)c2ccccc2)c(=O)n1-c1ccccc1 [Example 8, 6β-[D,2-(2-Methyl-1-phenyl-3-pyrazolin-5-one-4-carbonylamino)-2-phenyl]acetamido penicillanic acid (sodium salt)]
9 | 5 | Cn1cc(C(=O)N[C@@H](C(=O)N[C@@H]2C(=O)N3[C@@H]2SC(C)(C)[C@@H]3C(=O)O)c2ccccc2)c(=O)n1Cc1ccccc1 [Example 9, 6β-[D,2-(1-Benzyl-2-methyl-3-pyrazolin-5-one-4-carbonylamino)-2-phenyl]acetamido penicillanic acid (sodium salt)]
10 | 5 | Cc1c(C(=O)N[C@@H](C(=O)N[C@@H]2C(=O)N3[C@@H]2SC(C)(C)[C@@H]3C(=O)O)c2ccccc2)c(=O)n(-c2ccc(Br)cc2)n1C [Example 10, 6β-[D,2-(2,3-Dimethyl-1-(4-bromophenyl)-3-pyrazolin-5-one-4-carbonylamino)-2-phenyl]acetamido penicillanic acid (sodium salt)]
11 | 2.5 | CC1(C)S[C@@H]2[C@H](NC(=O)[C@H](NC(=O)c3cn(-c4ccc([N+](=O)[O-])cc4)[nH]c3=O)c3ccccc3)C(=O)N2[C@H]1C(=O)O [Example 11, 6β-[D,2-(2-(4-Nitrophenyl)-3-pyrazolin-5-one-4-carbonylamino)-2-phenyl] acetamido penicillanic acid (sodium salt)]
12 | 5 | CC1(C)S[C@@H]2[C@H](NC(=O)[C@H](NC(=O)c3cn(-c4ccc(N)cc4)[nH]c3=O)c3ccccc3)C(=O)N2[C@H]1C(=O)O [Example 12, 6β-[D,2-(2-(4-Aminophenyl)-3-pyrazolin-5-one-4-carbonylamino)-2-phenyl] acetamido penicillanic acid (sodium salt)]
13 | 5 | CC1(C)S[C@@H]2[C@H](NC(=O)[C@H](NC(=O)c3cn(-c4ccc([N+](=O)[O-])cc4)[nH]c3=O)c3ccc(O)cc3)C(=O)N2[C@H]1C(=O)O [Example 13, 6β-[D,2-(2-(4-Nitrophenyl)-3-pyrazolin-5-one-4-carbonylamino)-2-(4-hydroxyphenyl)] acetamido penicillanic acid (sodium salt)]
14 | 2.5 | CC1(C)S[C@@H]2[C@H](NC(=O)[C@H](NC(=O)c3cn(-c4ccc(N)cc4)[nH]c3=O)c3ccc(O)cc3)C(=O)N2[C@H]1C(=O)O [Example 14, 6β-[D,2-(2-(4-Aminophenyl)-3-pyrazolin-5-one-4-carbonylamino)-2-(4-hydroxyphenyl)] acetamido penicillanic acid (sodium salt)]
15 | 2 | CC1(C)S[C@@H]2[C@H](NC(=O)[C@H](NC(=O)c3cn(-c4ccc(O)cc4)[nH]c3=O)c3ccccc3)C(=O)N2[C@H]1C(=O)O [Example 15, 6β-[D,2-(2-(4-Hydroxyphenyl)-3-pyrazolin-5-one-4-carbonylamino)-2-phenyl] acetamido penicillanic acid (sodium salt)]
16 | 25 | Cc1c(C(=O)N[C@@H](C(=O)N[C@@H]2C(=O)N3[C@@H]2SC(C)(C)[C@@H]3C(=O)O)c2ccccc2)c(=O)[nH]n1-c1ccccc1 [Example 16, 6β-[D,2-(3-Methyl-2-phenyl-3-pyrazolin-5-one-4-carbonyl-amino)-2-phenyl]acetamido penicillanic acid, sodium salt]
17 | 1 | CC1(C)S[C@@H]2[C@H](NC(=O)[C@H](NC(=O)c3cn(-c4ccc(Br)cc4)[nH]c3=O)c3ccccc3)C(=O)N2[C@H]1C(=O)O [Example 17, 6β-[D,2-(2-p-Bromophenyl-3-pyrazolin-5-one-4-carbonylamino)-2-phenyl]acetamido penicillanic acid, sodium salt]
18 | 0.25 | COc1ccc(-n2cc(C(=O)N[C@@H](C(=O)N[C@@H]3C(=O)N4[C@@H]3SC(C)(C)[C@@H]4C(=O)O)c3ccccc3)c(=O)[nH]2)cc1 [Example 20, 6β-[D,2-(2-[4-Methoxyphenyl]-pyrazol-3-in-5-one-4-carbonylamino)-2-phenyl]acetamido penicillanic acid, sodium salt]
19 | 8 | COc1nn(-c2ccc([N+](=O)[O-])cc2)cc1C(=O)N[C@@H](C(=O)N[C@@H]1C(=O)N2[C@@H]1SC(C)(C)[C@@H]2C(=O)O)c1ccccc1 [Example 21, 6-β-[D,2-([1H]-3-Methoxy-1-[4-nitrophenyl]pyrazole-4-carbonylamino)-2-phenyl]acetamido penicillanic acid, sodium salt]
20 | 16 | COc1nn(-c2ccc(N)cc2)cc1C(=O)N[C@@H](C(=O)N[C@@H]1C(=O)N2[C@@H]1SC(C)(C)[C@@H]2C(=O)O)c1ccccc1 [Example 22, 6β-[D,2-([1H]-1-(4-Aminophenyl)-3-methoxypyrazole-4-carbonylamino)-2-phenyl]acetamido penicillanic acid, sodium salt]
21 | 10 | Cc1ccc(-n2cc(C(=O)N[C@@H](C(=O)N[C@@H]3C(=O)N4[C@@H]3SC(C)(C)[C@@H]4C(=O)O)c3ccccc3)c(=O)[nH]2)cc1 [Example 23, 6β-[D,2-(2-[4-Methylphenyl]pyrazol-3-in-5-one-4-carbonylamino)-2-phenyl] acetamido penicillanic acid, sodium salt]

Row | Compound | MIC [µg/mL]
22 | CC(=O)OCC1=C(C(=O)O)N2C(=O)[C@@H](NC(=O)[C@H](NC(=O)c3cn(-c4ccc([N+](=O)[O-])cc4)[nH]c3=O)c3ccccc3)[C@H]2SC1 [Example 18, 7β-[D,2-(2-p-Nitrophenyl-3-pyrazolin-5-one-4-carbonyl-amino)-2-phenyl]acetamido-3-acetoxymethylceph-3-em-4-carboxylic acid, sodium salt] | 1
23 | CC(=O)OCC1=C(C(=O)O)N2C(=O)[C@@H](NC(=O)[C@H](NC(=O)c3cn(-c4ccc(N)cc4)[nH]c3=O)c3ccccc3)[C@H]2SC1 [Example 19, 7β-[D,2-(2-p-Aminophenyl-3-pyrazolin-5-one-4-carbonylamino)-2-phenyl]acetamido-3-acetoxymethylceph-3-em-4-carboxylic acid, sodium salt] | 5
